Source: PubChem BioAssay (NCI)
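These data come from cells grown in 96-well plates and exposed to compound for 48 hours at five concentrations. Here, GI50 denotes the concentration required for 50% inhibition of growth. The concentration for full growth arrest is given as TGI.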 Where a SMILES comes first, the peptide text is derived from it. [ ]: non-standard residue; d: D form. The star is where a group is joined. ξ: configuration not given here. 4Abz = Nc1ccc(C(=O)O)cc1; ξL = CC(C)CC(N)C(=O)O; NHOH = ON*

Columns and labels:
Test in all cases: NCI tumour cell line growth inhibition, 48 h
SK-MEL-2 melanoma = tested on: SK-MEL-2 melanoma
SF-268 CNS = tested on: SF-268 CNS
OVCAR-8 ovarian = tested on: OVCAR-8 ovarian
HT29 colon = tested on: HT29 colon
NCI-H460 lung = tested on: NCI-H460 lung
UACC-257 melanoma = tested on: UACC-257 melanoma
LOX IMVI melanoma = tested on: LOX IMVI melanoma
MDA-MB-231 breast = tested on: MDA-MB-231 breast
HOP-92 NSCLC = tested on: HOP-92 NSCLC
SNB-75 CNS = tested on: SNB-75 CNS

| Structure (SMILES) | TGI (SK-MEL-2 melanoma) [µM] | TGI (SF-268 CNS) [µM] | TGI (OVCAR-8 ovarian) [µM] | TGI (HT29 colon) [µM] | TGI (NCI-H460 lung) [µM] | TGI (UACC-257 melanoma) [µM] | TGI (LOX IMVI melanoma) [µM] | GI50 (SK-MEL-2 melanoma) [µM] | GI50 (MDA-MB-231 breast) [µM] | TGI (MDA-MB-231 breast) [µM] | GI50 (SF-268 CNS) [µM] | GI50 (OVCAR-8 ovarian) [µM] | GI50 (NCI-H460 lung) [µM] | GI50 (UACC-257 melanoma) [µM] | GI50 (HOP-92 NSCLC) [µM] | TGI (HOP-92 NSCLC) [µM] | TGI (SNB-75 CNS) [µM] | GI50 (HT29 colon) [µM] | GI50 (SNB-75 CNS) [µM] | GI50 (LOX IMVI melanoma) [µM] |
| --- | --- | --- | --- | --- | --- | --- | --- | --- | --- | --- | --- | --- | --- | --- | --- | --- | --- | --- | --- | --- |
| O=C1/C=C(/c2ccc(O)cc2)[C@H](O)Cc2ccc(OC3OC(CO)C(O)C(O)C3O)cc2O1 (stereo partly drawn) (tested in a mixture with another compound) | > 100 | > 100 | > 100 | > 100 | > 100 | > 100 | > 100 |  |  |  |  |  |  |  |  |  |  |  |  |  |
| COc1ccc(OC)c(-c2cc(-c3ccc(Cl)cc3)nn2-c2ccc(S(N)(=O)=O)cc2)c1 | > 100 | 32.9 | 34.6 |  | 93 | 16.4 |  | 35.1 | 6.05 | 19 | 13.9 | 11.3 | 10.6 | 3.98 | 19.2 | 62.5 |  |  |  |  |
| COC(=O)c1nc(N)[nH]c(=O)c1-c1ccc(Cl)cc1 | > 100 | > 100 | > 100 | > 100 | > 100 | > 100 | > 100 |  |  |  |  |  |  |  |  | > 100 | > 100 |  |  |  |
| CCCCCCCCOCC(O)COC (stereo not drawn) |  | > 100 | > 100 | > 100 | > 100 | > 100 | > 100 |  |  |  |  |  |  |  |  | > 100 |  |  |  |  |
| O=C(c1ccc(Cl)cc1)N(C(=S)N1CCN(c2ccccc2)CC1)C1CCCCC1 | > 100 | > 100 | > 100 | > 100 | > 100 | > 100 | > 100 |  |  |  |  |  |  |  |  | > 100 | > 100 |  |  |  |
| COc1ccc(/C=N\N2C(=O)Cc3ccccc32)cc1 | > 100 | > 100 | > 100 | > 100 | > 100 | > 100 | > 100 |  |  |  |  |  |  |  |  | 85.5 | 62 |  |  |  |
| S=c1sc2ccccc2n1CN1CCN(Cc2ccccc2)CC1 | > 100 | > 100 | > 100 | > 100 | > 100 | > 100 | > 100 |  |  |  |  |  |  |  |  | > 100 | > 100 |  |  |  |
| COc1cc(C=C2C(=O)OC(C)(C)OC2=O)cc(OC)c1OC | > 100 | > 100 | > 100 | > 100 | > 100 | > 100 | > 100 |  |  |  |  |  |  |  |  | > 100 |  |  |  |  |
| C=C1c2c(C)nn(-c3ccccc3)c2N(C)C23C[C@@H]1C1(C)c4c(C)nn(-c5ccccc5)c4N(C)C(C)(C[C@H]12)C3 (stereo partly drawn) | 22 | > 100 | > 100 | > 100 | > 100 | > 100 |  | 6.78 | 4.55 | 39.6 | 7.52 | 5.41 | 3.35 | 2.87 | 0.549 | 5.53 |  | 3.59 |  |  |
| COC(=O)c1ccc2n[se]nc2c1 | > 100 | > 100 | > 100 | > 100 | > 100 | > 100 | > 100 |  |  |  |  |  |  |  |  |  | > 100 |  |  |  |
| CCC(C)CNC1=C(NC(C)=O)C(=O)c2ccccc2C1=O (stereo not drawn) | > 100 | > 100 | > 100 | > 100 | > 100 | > 100 | > 100 |  |  |  |  |  |  |  |  |  | > 100 |  |  |  |
| Cc1cc(C)c(-c2noc(-c3ccc(Cl)cc3)c2C2=NCCN2)c(C)c1 | 43.8 | 37.4 |  | 34.2 | 32.1 | 34 | 42.9 |  |  |  |  |  |  |  |  |  | 37.3 |  |  |  |
| COc1ccc2c(c1)C(CCN)C(=O)N2 (stereo not drawn) | > 100 | > 100 | > 100 | > 100 | > 100 | > 100 | > 100 |  |  |  |  |  |  |  |  | > 100 | > 100 |  |  |  |
| CC(C)CC(NC(=O)[C@@H]1CCCN1C(=O)CNC(=O)c1ccc(N)cc1)C(=O)N[C@H](C)C(=O)NO (stereo partly drawn) (H-[4Abz]GP[ξL][dA]-{NHOH}) | > 100 | > 100 | > 100 | > 100 | > 100 | > 100 | > 100 | > 100 | > 100 | > 100 | > 100 | > 100 | > 100 | > 100 |  |  | > 100 | > 100 | > 100 | > 100 |
| NC(=O)NC1=NCCC(=O)N1CCc1c[nH]c2ccccc12 | 29.3 | 47 | 32.2 | 47.3 | 39.5 | 34.6 | 26.8 |  |  | 29.4 |  |  |  |  |  |  | 44.5 |  |  |  |
| O=C(/C=C(\O)C(=O)O)/C=C(\O)c1ccc(Cl)cc1 | > 100 | > 100 | > 100 | > 100 | > 100 | > 100 | > 100 |  |  |  |  |  |  |  |  | > 100 | > 100 |  |  |  |
| CC(=O)O/N=C1\C=Cc2c(no[n+]2[O-])C1=O | 32.7 | 38.1 | 25.4 | 32.4 | > 100 | 32.2 | 36.2 |  |  | 34.4 |  |  |  |  |  |  | 35.5 |  |  |  |
| Cn1c(=O)c(C2c3ccccc3Oc3c2c(=O)n(C)c2ccccc32)c(O)c2ccccc21 (stereo not drawn) | > 100 | > 100 | > 100 | > 100 | > 100 | 73.7 | > 100 |  |  |  |  |  |  |  |  | > 100 | > 100 |  |  |  |
| CCOc1cccc2cccnc12 |  | > 100 | > 100 | > 100 | > 100 | > 100 | > 100 |  |  |  |  |  |  |  |  | > 100 | > 100 |  |  |  |
| COc1ccccc1NC(=O)CC(=O)NNCC(=O)Nc1nc(-c2ccccc2)cs1 |  | > 100 | > 100 | > 100 | > 100 |  | > 100 |  |  |  |  |  |  |  |  |  | > 100 |  |  |  |
